Biological target: T1, Pin1 (Homo sapiens, UniProt Q13526)
T1 construct: PTPI-PIN1 directs the synthesis of the native full length Pin1 protein; (His)6 (N); made in house; host or cells: E. coli BL21
Assay: PPIase assay: inhibition of Pin1 PPIase activity
Assay type: biochemical
Conditions: even at 25 μM
Procedure: PPIase activity of the purified recombinant proteins was assayed using the procedure of Heitman et al. (Methods, 5:176, 1993) with the following exceptions. The reaction was carried out 5° C. and chymotrypsin was added just before the peptide substrate (N-Succ-Ala-Pro-Phe-p-nitroanilide, Sigma). The cis to trans isomerization was monitored every 6 seconds by a change in the absorbance at 395 nm using DMS 2000 UV and Visible Spectrophotometer (Varian). FKBP, cyclosporin A and FK520, a FK506 derivative, were gifts of D. Schultz and C. Zuker; University of California, San Diego.
Because of the strong sequence in similarity between Pin1 and the third PPIase family, Pin was tested to determine if Pin could catalyze the cis/trans isomerization of peptidyl-prolyl peptide bonds in vitro, a characteristic of PPIase. Pin1 was expressed in bacteria with an N-terminal (His)6 tag and was purified from bacteria using a […] agarose column. […] The isomerase activity was measured as described in Example 1. The cis to trans isomerization was monitored every 6 seconds by a change in the absorbance at 395 nm, with the finally stable absorbance of each sample being set at 1.0. Different concentrations of Pin1 were used as indicated, with the recombinant FK506-binding protein (FKBP) PPIase being used as a positive control. The control sample contained all the ingredients except the PPIase. […]

T1 sequence (Q13526 whole entry): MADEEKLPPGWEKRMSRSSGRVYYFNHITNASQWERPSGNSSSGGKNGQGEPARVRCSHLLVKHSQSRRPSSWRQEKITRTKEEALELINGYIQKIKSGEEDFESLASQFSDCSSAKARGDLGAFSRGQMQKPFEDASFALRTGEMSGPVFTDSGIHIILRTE

## CC[C@@H]1/C=C(\C)C[C@H](C)C[C@H](OC)[C@H]2O[C@@](O)(C(=O)C(=O)N3CCCC[C@H]3C(=O)O[C@H](/C(C)=C/[C@@H]3CC[C@@H](O)[C@H](OC)C3)[C@H](C)[C@@H](O)CC1=O)[C@H](C)C[C@@H]2OC [FK520]
  inhibition of the PPIase activity of Pin1: not inhibited

Source: patent publication US7125955B2, “NIMA interacting proteins” (The Salk Institute for Biological Studies, priority 1995, dated 2006)
